# Tested on: HSV-1
# Test: Antiviral activity against HSV-1 by cytopathic (CPE) assay in Hep-2 cells
# Format: cell-based, Herpes Simplex Virus 1
# Settings: Human alphaherpesvirus 1; anti-HSV-1 activity, CPE assay, Hep-2 cells, neutral red OD 540 nm, Reed-Muench
# Description: The antiviral activities against HSV-1 were evaluated by cytopathic (CPE) assay. Hep-2 monolayer cells were treated with trypsin enzyme and transferred to 96-well plates. HSV-1 viruses were seeded with Hep-2 cells in 96-well plates, with 2% RPMI-1640 medium, and incubated under 37° C., 5% CO2. After more than 90% lesions, the virus-infected cells were repeatedly freezed and thawed for 3 times, centrifuged, and stored in the refrigerator at −80° C. Each tested compound was dissolved in 10 μL DMSO to make a homogeneous solution and the solution was diluted 10 times by one-to-one dilution with 2% RPMI-1640 medium. The solution gradient was added to the infected cells incubated in 96-well plates. Ribavirin was used as positive control. Normal cells alone and infected cells alone were used as control. All samples were incubated under 37° C., 5% CO2. Examine pathological changes once every hour, for 24 h. […] OD value was determined at 540 nm. IC50 values of the tested compounds were calculated by Reed-Muench methods.
row,IC50,Structure (SMILES)
1,25 to 50 µM,COc1ccc([C@@]2(O)c3c(ccc(/C=C/C(C)=O)c3O)NC(=O)[C@@H]2OC)cc1 [Compound 18]
2,50 to 100 µM,COc1ccc([C@]2(O)c3c(O)cccc3NC(=O)[C@H]2O)cc1 [Compound 15]
3,0.05 to 2 µM,C=C(C)[C@H]1CC[C@](C)(/C=C/c2ccc3c(c2O)[C@@](O)(c2ccccc2)[C@H](OC)C(=O)N3)O1 [Compound 1]
4,2 to 25 µM,COc1ccc([C@@]2(O)c3c(ccc(/C=C/[C@]4(C)CC[C@@H](O)C(C)(C)O4)c3O)NC(=O)[C@@H]2OC)cc1 [Compound 7]
5,50 to 100 µM,COc1ccc([C@]2(O)c3ccccc3NC(=O)[C@H]2O)cc1 [Compound 16]
6,0.05 to 2 µM,CO[C@@H]1C(=O)Nc2ccc(/C=C/[C@]3(C)CCC(=O)[C@@H](C)C3)c(O)c2[C@@]1(O)c1ccccc1 [Compound 2a]
7,2 to 25 µM,COc1ccc([C@@]2(O)c3c(ccc(/C=C/[C@@]4(C)OC(C)(C)[C@H]5C[C@H]54)c3O)NC(=O)[C@@H]2OC)cc1 [Compound 6]
8,25 to 50 µM,COc1ccc([C@@]2(O)c3c(ccc(CC=C(C)C)c3O)NC(=O)[C@@H]2OC)cc1 [Compound 17]
9,25 to 50 µM,COc1ccc(-c2c(O)c(=O)[nH]c3ccccc23)cc1 [Compound 29]
10,25 to 50 µM,C=C(C)/C=C/c1ccc2c(c1O)[C@](O)(c1ccc(OC)cc1)[C@@H](OC)C(=O)N2 [Compound 19]
11,0.05 to 2 µM,COc1ccc([C@@]2(O)c3c(ccc(/C=C/C4(C)CCC(C)(C)C(O)O4)c3O)NC(=O)[C@@H]2OC)cc1 (some centres unmarked) [Compound 10]
12,25 to 50 µM,O=c1[nH]c2ccccc2c(-c2ccccc2)c1O [Compound 30]
13,50 to 100 µM,"NC(=O)c1ncn([C@@H]2O[C@H](CO)[C@@H](O)[C@H]2O)n1 [Ribavirin, reference compound]"
14,2 to 25 µM,COc1ccc([C@@]2(O)c3c(ccc(/C=C/[C@@]4(C)OC(C)(C)[C@@H]5C[C@@H]54)c3O)NC(=O)[C@@H]2OC)cc1 [Compound 5]
15,0.05 to 2 µM,CO[C@@H]1C(=O)Nc2ccc(/C=C/[C@]3(C)CC[C@@H](O)[C@@H](C)C3)c(O)c2[C@@]1(O)c1ccccc1 [Compound 3]
16,0.05 to 2 µM,CO[C@@H]1C(=O)Nc2ccc(/C=C/[C@@]3(C)CCC(=O)[C@@H](C)C3)c(O)c2[C@@]1(O)c1ccccc1 [Compound 4]
17,2 to 25 µM,COc1ccc([C@@]2(O)c3c(ccc(/C=C/[C@@]4(C)CCC(C)(C)CO4)c3O)NC(=O)[C@@H]2OC)cc1 [Compound 11]

# Same assay, conditions: TC50 = median toxic concentration for Hep-2 monolayer cells; IC50 against HSV-1
row,Structure (SMILES),TI = TC50/IC50
1,COc1ccc([C@@]2(O)c3c(ccc(/C=C/[C@]4(C)CCC(C)(C)CO4)c3O)NC(=O)[C@@H]2OC)cc1 [Compound 12],++ (“++” means TI was between 20 and 100)
2,"NC(=O)c1ncn([C@@H]2O[C@H](CO)[C@@H](O)[C@H]2O)n1 [Ribavirin, reference compound]",++++ (“++++” means TI > 500)

# Same assay, conditions: anti-HSV-1 activity, CPE assay, Hep-2 cells, neutral red OD 540 nm, Reed-Muench
row,IC50,Structure (SMILES)
1,2 to 25 µM,COc1ccc([C@@]2(O)c3c(ccc(/C=C/[C@]4(C)CCC(C)(C)CO4)c3O)NC(=O)[C@@H]2OC)cc1 [Compound 12]
